Read-outs that look alike come from different tables or passages of the source.
How the values were obtained:
HIV-1 Q23 pseudovirus = assay: HIV-1 whole virus inhibition assay, Q23 pseudovirus (luciferase, TZM-bl cells); assay type: cell-based
Method: (§1) The HIV pseudoviruses were produced from the plasmids that were kindly donated by Dr Mthunzi-Kufa (CSIR, South Africa). Competent DH5α cells and STBL2 cells were transformed with envelope (CAP210.2.00.E8 and Q23.17) and backbone plasmid (HIV-1 SG3 ΔEnv) through heat-shock at 42 °C for 90 seconds and cooled in ice for 5 minutes. The transformed cells were grown in Luria Bertani medium containing 100 μg mL^−1 ampicillin and glycerol stocks were prepared. The transformed cells were grown at 37 °C in a 200 rpm shaking incubator overnight and the plasmids were isolated from the cells using a GeneJET plasmid Miniprep Kit (ThermoFisher Scientific Inc). The purity of the isolated plasmids was assessed for purity using Nanodrop. The HEK 293T cells were co-transfected with the backbone (10 μg) and envelope plasmids (5 μg) using the PolyFect Transfection Reagent (QIAGEN N.V) for 8–12 hours and the transfected cells were grown for 48 hours producing pseudoviruses which were collected, and stocks stored at −80 °C.
(§2) The compounds were serial diluted from 100 to1.56 μM in 96 well plates (Separation Scientific SA (Pty) Ltd) and incubated with either CAP210 or Q23 pseudoviruses (200 TCID50) and incubated for 1 hour. The TZM-bl cells (1 × 10^5 cells per mL containing 7.5 μg mL^−1 DEAE-dextran) were added and incubated for 48 hours. The 96 well plates were centrifuged, and the supernatant was removed leaving only 50 μL in each well. The Bright-Glo™ Luciferase substrate (Anatech Instruments (Pty) Ltd) (50 μL) was added to each well and incubated for 2 minutes in the dark and chemiluminescence readings were taken in a Corning® 96-well white polystyrene plate using a SpectraMax® Paradigm® Multi-Mode Microplate Reader.

[1] = test system: HIV-1 subtype C pseudoviruses; conditions: cited from earlier work
HIV-1 CAP210 pseudovirus = assay: HIV-1 whole virus inhibition assay, CAP210 pseudovirus (luciferase, TZM-bl cells); assay type: cell-based
Method: as §1, §2

CAP210 pseudovirus = assay: Time of drug addition assay, CAP210 pseudovirus in TZM-bl cells; assay type: cell-based, HIV-1; conditions: 3 μM, added 0, 2, 4, 6, 8 hours post-infection
Method: Fig. 5 Time of addition assay of CAP210 HIV infection treated with active compounds. TZM-bl cells were infected with CAP210 pseudoviruses and treated with compounds at various hours post-infection. NVP, 3g, and 4b were used at 3 μM, while 5f and 5h were used at 25 μM. The bars represent the mean ± SEM obtained from three independent experiments.
TZM-bl cells (1 × 10^5 cells per mL containing 7.5 μg mL^−1 DEAE-dextran) were infected with CAP210 pseudovirus at 400 TCID50 and incubated at 37 °C for 48 hours. The compounds were added to the wells at various time points (0, 2, 4, 6, and 8 hours) post-infection. […] After 48 hours, the cells were centrifuged at 1200 × g for 5 minutes, culture media was removed, leaving 50 μL, and Bright-Glo substrate (50 μL) was added to detect luciferase activity for 2 minutes at 37 °C. Inhibition of HIV pseudoviruses by active compounds was detected by reading for chemiluminescence using a Corning® 96-well white polystyrene using the SpectraMax® Paradigm® Multi-Mode Microplate Reader.

various HIV-1 subtypes = conditions: literature reports; read-out: IC50 against various HIV-1 subtypes; cited from earlier work

Cc1ccnc2c1NC(=O)c1cccnc1N2C1CC1 [NVP, nevirapine, reference compound]
IC50 (HIV-1 Q23 pseudovirus; TZM-bl, 48 h, read-out: IC50 (μM) Q23, Q23 pseudovirus, TZM-bl cells, 48 hours): < 0.11 µM | inhibition of Q23 infection (HIV-1 Q23 pseudovirus; all tested concentrations): 99% | IC50 (HIV-1 Q23 pseudovirus; read-out: IC50 (μM) Q23, Q23 pseudovirus, TZM-bl cells, 48 hours): 0.11 ± 0.004 µM | IC50 [1]: 0.03 µM | IC50 (HIV-1 CAP210 pseudovirus; TZM-bl, 48 h, read-out: IC50 (μM) CAP210, CAP210 pseudovirus, TZM-bl cells, 48 hours): 0.1 ± 0.002 µM | inhibition of CAP210 infection (HIV-1 CAP210 pseudovirus; all tested concentrations): 99% | inhibition of HIV infection by time of addition (CAP210 pseudovirus): inhibit HIV infections for up to 8 hours | IC50 (various HIV-1 subtypes): ~0.03 µM

Reference: publication PMC11883425, “The synthesis and investigation of novel 3-benzoylbenzofurans and pyrazole derivatives for anti-HIV activity” (RSC Medicinal Chemistry, 2025)
